One series deals with T1, human NOX4 (hNOX4) (Homo sapiens, UniProt Q9NPH5).
T1 sequence (Q9NPH5 1-578): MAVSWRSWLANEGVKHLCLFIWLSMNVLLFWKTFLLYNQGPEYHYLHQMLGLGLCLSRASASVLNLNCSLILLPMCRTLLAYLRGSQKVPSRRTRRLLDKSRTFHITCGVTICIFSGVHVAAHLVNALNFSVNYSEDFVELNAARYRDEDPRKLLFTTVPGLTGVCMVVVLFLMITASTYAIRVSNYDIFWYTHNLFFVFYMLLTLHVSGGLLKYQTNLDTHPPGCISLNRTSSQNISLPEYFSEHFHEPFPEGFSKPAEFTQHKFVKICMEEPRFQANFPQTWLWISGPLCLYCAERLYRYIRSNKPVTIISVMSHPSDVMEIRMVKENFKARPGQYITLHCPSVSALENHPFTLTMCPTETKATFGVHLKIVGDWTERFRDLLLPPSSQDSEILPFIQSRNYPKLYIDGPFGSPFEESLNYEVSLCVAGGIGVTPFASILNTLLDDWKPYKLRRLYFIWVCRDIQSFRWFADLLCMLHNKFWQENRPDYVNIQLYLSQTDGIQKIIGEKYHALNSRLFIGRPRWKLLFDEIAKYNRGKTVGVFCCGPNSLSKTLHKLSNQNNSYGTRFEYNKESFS
T1 sequence (P13498 2-195 partner limits assumed): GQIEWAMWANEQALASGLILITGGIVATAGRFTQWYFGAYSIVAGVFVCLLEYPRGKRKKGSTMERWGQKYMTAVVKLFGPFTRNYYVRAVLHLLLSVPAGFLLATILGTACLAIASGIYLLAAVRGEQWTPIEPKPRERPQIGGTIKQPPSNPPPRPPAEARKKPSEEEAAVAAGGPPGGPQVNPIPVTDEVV
Description: cell-based.

The test system of the next series is human hepatocytes. The experiment in a line: Evaluation of hepatocyte clearance (metabolic stability). The class given is in vitro ADME. Conditions: 1 μM test compound, 5% human serum, Table 3. The procedure, abridged:
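Cryopreserved human hepatocytes (typically 1 Mio cells/mL) in supplemented DMEM with 5% human serum incubated with 1 μM compound (0.05% DMSO) at 37° C, sampled to 6 hours. Parent decline by HPLC-MS/MS; CLint = Dose/AUC, scaled to in vivo blood CL via well-stirred model.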

In another series the target is T2, NOX2 (Homo sapiens, UniProt P04839).
T2 construct: endogenous in cells; host or cells: freshly isolated human blood-derived granulocytes
T2 sequence (P04839 2-570 limits assumed): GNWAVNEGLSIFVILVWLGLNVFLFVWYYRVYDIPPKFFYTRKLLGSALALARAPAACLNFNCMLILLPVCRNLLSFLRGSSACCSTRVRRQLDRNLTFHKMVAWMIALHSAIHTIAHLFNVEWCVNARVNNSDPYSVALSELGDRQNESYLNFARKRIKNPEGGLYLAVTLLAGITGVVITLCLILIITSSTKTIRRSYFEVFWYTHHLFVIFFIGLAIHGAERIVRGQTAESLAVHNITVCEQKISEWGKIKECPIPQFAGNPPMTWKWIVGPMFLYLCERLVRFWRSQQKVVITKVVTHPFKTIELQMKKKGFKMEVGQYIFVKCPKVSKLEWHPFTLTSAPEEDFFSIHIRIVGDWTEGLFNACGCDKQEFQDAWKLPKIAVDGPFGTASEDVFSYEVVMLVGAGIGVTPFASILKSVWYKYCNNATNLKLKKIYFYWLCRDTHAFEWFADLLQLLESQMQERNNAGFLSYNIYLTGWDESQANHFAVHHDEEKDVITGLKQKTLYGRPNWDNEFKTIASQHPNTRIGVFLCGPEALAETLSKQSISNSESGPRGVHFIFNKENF
T2 sequence (P13498 2-195 partner limits assumed): T1 sequence (P13498 2-195 partner limits assumed)
Description: NOX2 inhibition assay (L-012), human blood-derived granulocytes. Type of series: cell-based. Conditions: fMLP/PMA stimulated. The procedure:
Evaluation of the NOX4 inhibitors on NOX2 activity is assessed in human blood-derived granulocytes.
Afterwards, freshly isolated granulocytes are added to the wells containing the compounds in assay buffer and incubated for 1 h at 37° C. Next, a solution of Nformylmethionine-leucyl-phenylalanine (fMLP; 730 nM), phorbol myristate acetate (PMA, 100 nM) (stimuli of ROS production) and L-012 (200 μM, ROS indicator) is added to the wells and the cells are incubated for additional 30 mins at 37° C. Afterwards luminescence is measured in a SpectraMax M5 microplate reader.

Each structure is given as a SMILES string. pIC50: −log10 of the molar value.

For the compound `O=c1c2scnc2nc(SCc2ccc(C(F)(F)F)cc2Cl)n1-c1cnc(O)c(F)c1` [Example 46], the pIC50 (as a rule, the IC50 on a negative log10 scale, so that one unit is a factor of ten) against human NOX4 (hNOX4) is 6.89; against NOX2, below 4.00. In addition, in the series on human hepatocytes, the “Qh [%]” value came out at 21%.
In the same order, the values of `O=c1c2scnc2nc(SCc2c(F)cc(F)cc2F)n1-c1cnc(O)c(Cl)c1` [Example 48, 6-(5-Chloro-6-hydroxypyridin-3-yl)-5-((2,4,6-trifluorobenzyl)thio)thiazolo[4,5-d]pyri-midin-7(6H)-one] are 6.70, below 4.00 and 22%.
The like results for `O=c1c2scnc2nc(SCc2ccc(C(F)(F)F)cc2)n1-c1cc(F)c(O)c(F)c1` [Example 7] were, in that order, 7.11, below 4.00 and 55%.
In the same order, the values of `O=c1c2scnc2nc(SCc2c(F)cc(F)cc2F)n1-c1ccc(O)c(F)c1F` [Example 12] are 7.29, below 4.52 and 77%.
With `Cc1cc(F)ccc1CSc1nc2ncsc2c(=O)n1-c1cnc(O)c(F)c1` [Example 36], the results for the negative-log IC50 (pIC50) against human NOX4 (hNOX4) and on NOX2 were 7.47 and below 4.00, respectively. Moreover, the “Qh [%]” value with human hepatocytes was 34%.
The like results for `O=c1c2scnc2nc(SCc2ccc(C(F)(F)F)cc2)n1-c1cnc(O)c(F)c1` [Example 32, 6-(5-Fluoro-6-hydroxypyridin-3-yl)-5-((4-(trifluoromethyl)benzyl)thio)thiazolo[4,5-d]pyrimidin-7(6H)-one] were, in that order, 7.40, below 4.00 and 15%.
In the same order, the values of `O=c1c2scnc2nc(SCc2ccc(Br)cc2F)n1-c1cnc(O)c(F)c1` [Example 34] are 7.54, below 4.00 and 8%.
On to `Cc1cc(Cl)ccc1CSc1nc2ncsc2c(=O)n1-c1ccc(O)nc1` [Example 23], for which the negative logarithm of the IC50 (pIC50) was 7.02 against human NOX4 (hNOX4) and below 4.00 against NOX2. The “Qh [%]” value in the series with human hepatocytes worked out at 55%.
As for `Cc1cc(Cl)ccc1CSc1nc2ncsc2c(=O)n1-c1ccc(O)nn1` [Example 62], the pIC50 against human NOX4 (hNOX4) is 6.90; at NOX2, below 4.00. Moreover, in the series with human hepatocytes, the “Qh [%]” value was 58%.
The like results for `O=c1c2scnc2nc(SCc2ccc(Cl)cc2Cl)n1-c1cnc(O)c(F)c1` [Example 39] were, in that order, 7.25, below 4.00 and 26%.
In the same order, the values of `O=c1c2scnc2nc(SCc2ccc(C(F)(F)F)cc2)n1-c1ccc(O)nn1` [Example 66] are 6.86, below 4.00 and 40%.
In the same order, the values of `O=c1c2scnc2nc(SCc2ccc(F)cc2Br)n1-c1cnc(O)c(F)c1` [Example 44] are 7.20, below 4.00 and 29%.
Regarding `O=c1c2scnc2nc(SCc2c(F)cc(F)cc2F)n1-c1ccc(O)nc1F` [Example 50, 6-(2-Fluoro-6-hydroxypyridin-3-yl)-5-((2,4,6-trifluorobenzyl)thio)thiazolo[4,5-d]-pyrimidin-7(6H)-one], the pIC50 is 7.33 on human NOX4 (hNOX4) and below 4.00 at NOX2. In addition, in the series on human hepatocytes, the “Qh [%]” value was determined as 19%.
In the same order, the values of `O=c1c2scnc2nc(SCc2ccc(Cl)cc2F)n1-c1cnc(O)c(F)c1` [Example 35] are 7.48, below 4.00 and 15%.
Take `Cc1cc(F)cc(C)c1CSc1nc2ncsc2c(=O)n1-c1cc(F)c(O)c(F)c1` [Example 4]: the negative-log IC50 (pIC50) against human NOX4 (hNOX4) is 7.04; against NOX2, below 4.00. In addition, the “Qh [%]” value in the series with human hepatocytes came to 41%.
The like results for `O=c1c2scnc2nc(SCc2c(F)cc(F)cc2F)n1-c1ccc(O)cc1F` [Example 14] were, in that order, 7.42, 4.87 and 73%.
Turning to `Cc1cc(F)ccc1CSc1nc2ncsc2c(=O)n1-c1cnc(O)nc1` [Example 58], the negative-log IC50 (pIC50) was 6.85 against human NOX4 (hNOX4) and below 4.00 against NOX2. In the series on human hepatocytes, the “Qh [%]” value was determined as 19%.
The like results for `Cc1cc(F)ccc1CSc1nc2ncsc2c(=O)n1-c1cc(F)c(O)c(F)c1` [Example 9] were, in that order, 7.54, below 4.00 and 65%.
In the case of `Cc1cc(F)cc(C)c1CSc1nc2ncsc2c(=O)n1-c1cnc(O)nc1` [Example 55], the pIC50 is 6.94 against human NOX4 (hNOX4) and below 4.00 at NOX2. Also, the “Qh [%]” value in the series on human hepatocytes is 15%.
The like results for `O=c1c2scnc2nc(SCc2ccc(Cl)cc2)n1-c1cc(F)c(O)c(F)c1` [Example 5] were, in that order, 7.62, below 4.00 and 56%.
In the same order, the values of `O=c1c2scnc2nc(SCc2c(F)cc(F)cc2F)n1-c1cnc(O)c(F)c1` [Example 31, 6-(5-Fluoro-6-hydroxypyridin-3-yl)-5-((2,4,6-trifluorobenzyl)thio)thiazolo[4,5-d]-pyrimidin-7(6H)-one] are 7.22, 4.98 and 14%.
Regarding `O=c1c2scnc2nc(SCc2ccc(Cl)cc2F)n1-c1ccc(O)nn1` [Example 61, 5-((4-Chloro-2-fluorobenzyl)thio)-6-(6-hydroxypyridazin-3-yl)thiazolo[4,5-d]pyrimidin-7(6H)-one], the pIC50 against human NOX4 (hNOX4) was 6.99; at NOX2, below 4.00. Further, the “Qh [%]” value in the series with human hepatocytes is given as 55%.
The like results for `O=c1c2scnc2nc(SCc2c(F)ccc(F)c2F)n1-c1cnc(O)c(F)c1` [Example 45] were, in that order, 6.95, below 4.00 and 23%.
The like results for `O=c1c2scnc2nc(SCc2c(F)cc(F)cc2F)n1-c1cnc(O)cc1F` [Example 49, 6-(4-Fluoro-6-hydroxypyridin-3-yl)-5-((2,4,6-trifluorobenzyl)thio)thiazolo[4,5-d]pyrimidin-7(6H)-one] were, in that order, 7.35, below 4.00 and 25%.

The record behind these values is patent publication US20240327429A1, “[1,3]Thiazolo[4,5-d]-pyrimidon-7-ones as inhibitors of NOX4” (Boehringer Ingelheim International GmbH, priority 2023, published 2024).
